Results published in patent US6706663B2, “Herbicidal 3-heterocyclic substituted benzisothiazole and benzisoxazole compounds” (Wyeth, priority 2000, dated 2004).

Key:
[1] = test system: TRZAWR (Wheat, Winter, cv Riband); experiment: Postemergence herbicidal evaluation; assay type: in vivo, Triticum aestivum; conditions: postemergence
Summary of the method: (§1)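 Seedlings grown about two weeks in flats, sprayed, then kept under standard greenhouse care. Rated visually 4–5 weeks after treatment on a 0–9 scale (stand, vigour, malformation, size, chlorosis, overall appearance) relative to untreated control; repeat tests averaged.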

CYPIR (Cyperus iria) = experiment: Flooded paddy, preemergence weed control; assay type: in vivo; conditions: rated 3-4 weeks after treatment, 0-9 rating scale
Summary of the method: (§2)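 In this preemergence paddy assay, weed seeds or organs are sown at up to 0.5 cm in silt loam and covered by 1.5–3 cm of water for the full test period. After treatment the pots are kept in a greenhouse, and herbicidal effect is rated 0-9 visually against a control.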

[2] = test system: AMBEL (Ambrosia artemisifolia); experiment: Preemergence herbicidal evaluation; assay type: in vivo, L.; conditions: preemergence, rated 4-5 weeks after treatment
Summary of the method: (§3)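 Applied before emergence as an aqueous acetone spray over seeded soil. Read-out: 0–9 visual rating covering plant stand, vigor, size, chlorosis, malformation and overall appearance compared with control, taken 4–5 weeks after spraying.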

[3] = test system: ABUTH (Abutilon theophrasti); experiment: Preemergence herbicidal evaluation; assay type: in vivo, Medic.; conditions: preemergence, rated 4-5 weeks after treatment
GLXMA (Soybean) = experiment: Preemergence herbicidal evaluation; assay type: in vivo, Glycine max, (L.) Merr.; conditions: preemergence, rated 4-5 weeks after treatment
ZEAMX (Corn, Field) [4] = experiment: Preemergence herbicidal evaluation; assay type: in vivo, Zea mays, L.; conditions: preemergence, rated 4-5 weeks after treatment
[5] = test system: ECHORC (Echinochloa oryzoides); experiment: Flooded paddy, preemergence weed control; assay type: in vivo, Echinochloa oryzoides (Ard.) Fritsch.; conditions: rated 3-4 weeks after treatment, 0-9 rating scale
Summary of the method: as §2

[6] = test system: SAGPY (Sagittaria pygmaea); experiment: Flooded paddy, preemergence weed control; assay type: in vivo, L.; conditions: rated 3-4 weeks after treatment, 0-9 rating scale
Summary of the method: as §2

[7] = test system: ABUTH (Abutilon theophrasti); experiment: Postemergence herbicidal evaluation; assay type: in vivo, Medic.; conditions: postemergence
Summary of the method: as §1

ZEAMX (Corn, Field) [8] = experiment: Postemergence herbicidal evaluation; assay type: in vivo, Zea mays, L.; conditions: postemergence
Summary of the method: as §1

[9] = test system: MOOVA (Monochoria vaginalis); experiment: Flooded paddy, preemergence weed control; assay type: in vivo, Presl.; conditions: rated 3-4 weeks after treatment, 0-9 rating scale
Summary of the method: as §2

[10] = test system: ECHCG (Echinochloa crus-galli); experiment: Postemergence herbicidal evaluation; assay type: in vivo, (L.) Beau; conditions: postemergence
Summary of the method: as §1

[11] = test system: IPOHE (Ipomoea hederacea); experiment: Postemergence herbicidal evaluation; assay type: in vivo, (L.) Jacq.; conditions: postemergence
Summary of the method: as §1

GALAP (Galium aparine) [12] = experiment: Preemergence herbicidal evaluation; assay type: in vivo; conditions: preemergence, rated 4-5 weeks after treatment
Summary of the method: as §3

ORYSAT (Rice, Tebonnet) [13] = experiment: Flooded paddy, post-transplant rice tolerance; assay type: in vivo, Oryza sativa, (L.) Tebonnet; conditions: flooded paddy, post-transplant rice, rated 3-4 weeks after treatment, 0-9 rating scale
Summary of the method: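 Visual 0–9 injury rating against a control, covering stand, vigor, malformation, size, chlorosis and overall appearance. Treatment was post-transplant onto flooded containers (water 1.5–3 cm deep, silt loam) holding two ten-day-old cv. Tebonnet seedlings, maintained on greenhouse benches.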

[14] = test system: GLXMAW (Soybean, Williams); experiment: Postemergence herbicidal evaluation; assay type: in vivo, Glycine max, (L.) Merr. cv Williams; conditions: postemergence
Summary of the method: as §1

[15] = test system: ECHCG (Echinochloa crus-galli); experiment: Preemergence herbicidal evaluation; assay type: in vivo, (L.) Beau; conditions: preemergence, rated 4-5 weeks after treatment
Summary of the method: as §3

[16] = test system: IPOHE (Ipomoea hederacea); experiment: Preemergence herbicidal evaluation; assay type: in vivo, (L.) Jacq.; conditions: preemergence, rated 4-5 weeks after treatment
[17] = test system: CHEAL (Chenopodium album); experiment: Postemergence herbicidal evaluation; assay type: in vivo, L.; conditions: postemergence
Summary of the method: as §1

[18] = test system: AMBEL (Ambrosia artemisifolia); experiment: Postemergence herbicidal evaluation; assay type: in vivo, L.; conditions: postemergence
Summary of the method: as §1

[19] = test system: CASOB (Cassia obtusifolia); experiment: Postemergence herbicidal evaluation; assay type: in vivo, L.; conditions: postemergence
Summary of the method: as §1

GALAP (Galium aparine) [20] = experiment: Postemergence herbicidal evaluation; assay type: in vivo; conditions: postemergence
Summary of the method: as §1

ORYSAT (Rice, Tebonnet) [21] = experiment: Postemergence herbicidal evaluation; assay type: in vivo, Oryza sativa, (L.) Tebonnet; conditions: postemergence
Summary of the method: as §1

[2-[5-[3,6-dihydro-3-methyl-2,6-dioxo-4-(trifluoromethyl)-1(2H)-pyrimidinyl]-1,2-benzisothiazol-3-1]-1,3-dioxolan-4-yl]methyl thiocyanate [Compound 89]
TRZAWR herbicidal rating ([1]; rate 0.0080 kg/ha): 1.5 | TRZAWR herbicidal rating ([1]; rate 0.0320 kg/ha): 3.0 | TRZAWR herbicidal rating ([1]; rate 0.0620 kg/ha): 3.0 | TRZAWR herbicidal rating ([1]; rate 0.1250 kg/ha): 4.0 | CYPIR herbicidal rating (CYPIR (Cyperus iria); rate 0.0320 kg/ha): 0.0 | CYPIR herbicidal rating (CYPIR (Cyperus iria); rate 0.1250 kg/ha): 8.0 | Preemergence herbicidal rating AMBEL ([2]; rate 0.0620 kg/ha): 4.0 | Preemergence herbicidal rating AMBEL ([2]; rate 0.1250 kg/ha): 9.0 | Preemergence herbicidal rating AMBEL ([2]; rate 0.2500 kg/ha): 9.0 | Preemergence herbicidal rating ABUTH ([3]; rate 0.0620 kg/ha): 9.0 | Preemergence herbicidal rating ABUTH ([3]; rate 0.1250 kg/ha): 9.0 | Preemergence herbicidal rating ABUTH ([3]; rate 0.2500 kg/ha): 9.0 | Preemergence herbicidal rating GLXMA (GLXMA (Soybean); rate 0.0620 kg/ha): 3.0 | Preemergence herbicidal rating GLXMA (GLXMA (Soybean); rate 0.1250 kg/ha): 6.0 | Preemergence herbicidal rating GLXMA (GLXMA (Soybean); rate 0.2500 kg/ha): 9.0 | Preemergence herbicidal rating ZEAMX (ZEAMX (Corn, Field) [4]; rate 0.0620 kg/ha): 0.0 | Preemergence herbicidal rating ZEAMX (ZEAMX (Corn, Field) [4]; rate 0.1250 kg/ha): 3.0 | Preemergence herbicidal rating ZEAMX (ZEAMX (Corn, Field) [4]; rate 0.2500 kg/ha): 4.0 | ECHORC herbicidal rating ([5]; rate 0.0320 kg/ha): 3.0 | ECHORC herbicidal rating ([5]; rate 0.1250 kg/ha): 5.0 | SAGPY herbicidal rating ([6]; rate 0.0320 kg/ha): 0.0 | SAGPY herbicidal rating ([6]; rate 0.1250 kg/ha): 9.0 | ABUTH herbicidal rating ([7]; rate 0.0080 kg/ha): 8.0 | ABUTH herbicidal rating ([7]; rate 0.0320 kg/ha): 9.0 | ABUTH herbicidal rating ([7]; rate 0.0620 kg/ha): 9.0 | ABUTH herbicidal rating ([7]; rate 0.1250 kg/ha): 9.0 | ZEAMX herbicidal rating (ZEAMX (Corn, Field) [8]; rate 0.0080 kg/ha): 3.0 | ZEAMX herbicidal rating (ZEAMX (Corn, Field) [8]; rate 0.0320 kg/ha): 3.5 | ZEAMX herbicidal rating (ZEAMX (Corn, Field) [8]; rate 0.0620 kg/ha): 3.5 | ZEAMX herbicidal rating (ZEAMX (Corn, Field) [8]; rate 0.1250 kg/ha): 3.5 | MOOVA herbicidal rating ([9]; rate 0.0320 kg/ha): 0.0 | MOOVA herbicidal rating ([9]; rate 0.1250 kg/ha): 8.0 | ECHCG herbicidal rating ([10]; rate 0.0080 kg/ha): 0.0 | ECHCG herbicidal rating ([10]; rate 0.0320 kg/ha): 0.0 | ECHCG herbicidal rating ([10]; rate 0.0620 kg/ha): 3.0 | ECHCG herbicidal rating ([10]; rate 0.1250 kg/ha): 4.0 | IPOHE herbicidal rating ([11]; rate 0.0080 kg/ha): 7.0 | IPOHE herbicidal rating ([11]; rate 0.0320 kg/ha): 9.0 | IPOHE herbicidal rating ([11]; rate 0.0620 kg/ha): 9.0 | IPOHE herbicidal rating ([11]; rate 0.1250 kg/ha): 9.0 | Preemergence herbicidal rating GALAP (GALAP (Galium aparine) [12]; rate 0.0620 kg/ha): 3.0 | Preemergence herbicidal rating GALAP (GALAP (Galium aparine) [12]; rate 0.1250 kg/ha): 6.0 | Preemergence herbicidal rating GALAP (GALAP (Galium aparine) [12]; rate 0.2500 kg/ha): 7.0 | ORYSAT herbicidal rating (transplanted rice tolerance) (ORYSAT (Rice, Tebonnet) [13]; rate 0.0320 kg/ha): 0.0 | ORYSAT herbicidal rating (transplanted rice tolerance) (ORYSAT (Rice, Tebonnet) [13]; rate 0.1250 kg/ha): 6.0 | GLXMAW herbicidal rating ([14]; rate 0.0080 kg/ha): 7.0 | GLXMAW herbicidal rating ([14]; rate 0.0320 kg/ha): 7.5 | GLXMAW herbicidal rating ([14]; rate 0.0620 kg/ha): 8.0 | GLXMAW herbicidal rating ([14]; rate 0.1250 kg/ha): 9.0 | Preemergence herbicidal rating ECHCG ([15]; rate 0.0620 kg/ha): 0.0 | Preemergence herbicidal rating ECHCG ([15]; rate 0.1250 kg/ha): 3.0 | Preemergence herbicidal rating ECHCG ([15]; rate 0.2500 kg/ha): 7.0 | Preemergence herbicidal rating IPOHE ([16]; rate 0.0620 kg/ha): 7.0 | Preemergence herbicidal rating IPOHE ([16]; rate 0.1250 kg/ha): 8.0 | Preemergence herbicidal rating IPOHE ([16]; rate 0.2500 kg/ha): 9.0 | CHEAL herbicidal rating ([17]; rate 0.0080 kg/ha): 8.0 | CHEAL herbicidal rating ([17]; rate 0.0320 kg/ha): 9.0 | CHEAL herbicidal rating ([17]; rate 0.0620 kg/ha): 9.0 | CHEAL herbicidal rating ([17]; rate 0.1250 kg/ha): 9.0 | AMBEL herbicidal rating ([18]; rate 0.0080 kg/ha): 7.0 | AMBEL herbicidal rating ([18]; rate 0.0320 kg/ha): 9.0 | AMBEL herbicidal rating ([18]; rate 0.0620 kg/ha): 9.0 | AMBEL herbicidal rating ([18]; rate 0.1250 kg/ha): 9.0 | CASOB herbicidal rating ([19]; rate 0.0080 kg/ha): 9.0 | CASOB herbicidal rating ([19]; rate 0.0320 kg/ha): 9.0 | CASOB herbicidal rating ([19]; rate 0.0620 kg/ha): 9.0 | CASOB herbicidal rating ([19]; rate 0.1250 kg/ha): 9.0 | GALAP herbicidal rating (GALAP (Galium aparine) [20]; rate 0.0080 kg/ha): 2.0 | GALAP herbicidal rating (GALAP (Galium aparine) [20]; rate 0.0320 kg/ha): 3.0 | GALAP herbicidal rating (GALAP (Galium aparine) [20]; rate 0.0620 kg/ha): 7.0 | GALAP herbicidal rating (GALAP (Galium aparine) [20]; rate 0.1250 kg/ha): 9.0 | ORYSAT herbicidal rating (ORYSAT (Rice, Tebonnet) [21]; rate 0.0080 kg/ha): 1.5 | ORYSAT herbicidal rating (ORYSAT (Rice, Tebonnet) [21]; rate 0.0320 kg/ha): 3.0 | ORYSAT herbicidal rating (ORYSAT (Rice, Tebonnet) [21]; rate 0.0620 kg/ha): 3.0 | ORYSAT herbicidal rating (ORYSAT (Rice, Tebonnet) [21]; rate 0.1250 kg/ha): 4.0
